Assays:
[1] = system: SH-SY5Y cells with Tet-Off conditional expression of β23; assay: Trypan blue exclusion cell viability assay, Tet-Off β23 expression; type: cell-based; details: for effect on β23-induced cytotoxicity: 1 μM, 24 h; for EC50: Homo sapiens, Tet-Off β23, trypan blue exclusion, read-out: median effective concentration, cytoprotection against β23 toxicity; for cytotoxicity of the compound at high concentrations: up to 4 µM
Method: Figure 1 Peucedanocoumarin IV (PCiv) inhibits β23 aggregations and cytotoxicity in SH-SY5Y cells. (A) Scheme showing the detailed experimental steps in the organic synthesis of racemic PCiv and racemic PCiii (rac-PCiii, and rac-PCiv). Both PCiii and PCiv used in this study are racemic forms. (B) Trypan blue exclusion cell viability assessment in SH-SY5Y cells with Tet-Off-induced β23 expressions. β23 was expressed for 24 h using the Tet-off system. Further expression of β23 was halted by doxycycline (Dox) treatment with simultaneous treatment of the PCiii, PCiv, or their synthetic intermediate, trans-khellatone (t-khellatone, 1 μM 24 h). Cell viability was assessed 24 h after doxycycline treatment (n = 5 per group). (C) Synthetic PCiv’s protective effect on Tet-Off-expressed β23 toxicity in SH-SY5Y cells compared with peucedanocoumarin III (PCiii) determined by trypan blue exclusion assay. (D) The degradation of β23 monitored by Western blot at 37 h after doxycycline (200 ng/mL) treatment. The representative Western blot image of HA (β23) in SH-SY5Y cells treated with synthetic PCiii, synthetic PCiv (1 μM, 37 h), or DMSO as a vehicle. (E) Quantification of HA (β23) expression in SH-SY5Y cells from the indicated experimental groups in panel D (n = 3 experiments per group). (F) Representative immunofluorescence of steady state HA (β23) expression in SH-SY5Y cells expressing Tet-Off regulatable reporter mCherry and HA-tagged β23. HA-β23 was expressed for 24 h using the Tet-off system. Further expression of β23 was halted by Dox treatment in the presence of PCiii or PCiv (1 μM, 37 h). (G) Quantification of HA (β23) immunofluorescence signal in mCherry positive SH-SY5Y cells in each experimental group (n = 32 cells from three separate experiments per group). The data are expressed as means ± SEMs. * p < 0.05, ** p < 0.01, *** p < 0.001, and **** p < 0.0001, ANOVA test followed by Tukey’s post hoc analysis. Two-way ANOVA was used in panel C.
Human neuroblastoma SH-SY5Y cells (ATCC, Manassas, VA, USA) were grown in complete media containing DMEMs, 10% fetal bovine serum (vol/vol), and antibiotics (penicillin-streptomycin 100 U/mL, Thermo Fisher Scientific, Waltham, MA, USA). The atmospheric condition used to preserve the cells consisted of 5% CO2/95% air at 37 °C and maintained a humidified environment. X-tremeGENE HP transfection reagents (Roche, Basel, Switzerland) were used for transient transfection of DNA constructs (pCMV-tTA, TetP-β23, and pTet-dual2 [5]) following the manufacturer’s instructions.
SH-SY5Y cells were plated in 12-well plates at a density of 0.2 × 10^6 cells per well. Following transient transfection with the indicated constructs and subsequent treatment protocol, the cells were harvested by trypsinization, thereby yielding single-cell suspensions. The cells were washed twice with phosphate-buffered saline (PBS) and resuspended in serum-free DMEM. The resuspended cells were mixed with an equal volume of 0.4% trypan blue (w/v) and incubated for 2 min at room temperature. Live and dead cells were counted using a Countess II Automated Cell Counter (Life Technologies, Carlsbad, CA, USA) for assessing cell viability.

[2] = system: α-synuclein PFF-treated mice cortical neurons; assay: PFF-induced neurotoxicity in cortical neurons, CCK-8 assay; type: cell-based, mouse; details: CCK-8, 14 days PFF, 1 μM every 2 days
Method: Figure 2 PCiv prevents α-synuclein aggregation in vitro and in cultured neurons with PFF treatment. (A) Representative Western blots showing the degree of recombinant α-synuclein (αSyn) aggregation in a test tube in the presence or absence of PCiv (100 μM) at the indicated incubation duration (phosphate-buffered saline [PBS], 37 °C for 3 or 5 days). Aggregation of α-synuclein was determined using α-synuclein antibody. (B) Quantification of the relative amount of α-synuclein aggregate in high molecular weight sizes in panel A (n = 3 per group). (C) Representative immunofluorescence of MAP2 and Lewy-like inclusion marker pS129-αSyn in mice cortical neurons treated with α-synuclein preformed fibril (PFF) (1 μg, for 14 days). […] (D) Quantification of pS129-αSyn immunofluorescence signal intensities in MAP2-positive cortical neurons in each experimental group (n = 15 cells from three separate experiments). (E) Cell viability assessment in the indicated experimental groups was monitored by CCK-8 assay (n = 3 per group). The data are expressed as means ± SEMs. * p < 0.05, ** p < 0.01, *** p < 0.001, and **** p < 0.0001, ANOVA test followed by Tukey’s post hoc analysis.
CD1 mice were purchased from Orient Co. for use in the mouse primary neuron culture. […] The optical value was read at 450 nm using a multi-detection microplate reader (Synergy, BioTek Instruments Inc., Winooski, VT, USA).

[3] = system: α-synuclein PFF-treated mice cortical neurons; assay: PFF-induced α-synucleinopathy in primary cortical neurons, immunofluorescence; type: cell-based, mouse; details: for endogenous α-synuclein expression: PBS- or PFF-treated mouse cortical neurons
Method: Figure 2 PCiv prevents α-synuclein aggregation in vitro and in cultured neurons with PFF treatment. (A) Representative Western blots showing the degree of recombinant α-synuclein (αSyn) aggregation in a test tube in the presence or absence of PCiv (100 μM) at the indicated incubation duration (phosphate-buffered saline [PBS], 37 °C for 3 or 5 days). Aggregation of α-synuclein was determined using α-synuclein antibody. (B) Quantification of the relative amount of α-synuclein aggregate in high molecular weight sizes in panel A (n = 3 per group). (C) Representative immunofluorescence of MAP2 and Lewy-like inclusion marker pS129-αSyn in mice cortical neurons treated with α-synuclein preformed fibril (PFF) (1 μg, for 14 days). To evaluate the protective effects of PCiv as compared with PCiii, these compounds were treated (1 μM every 2 days for 14 days) following the PFF treatment. (D) Quantification of pS129-αSyn immunofluorescence signal intensities in MAP2-positive cortical neurons in each experimental group (n = 15 cells from three separate experiments). (E) Cell viability assessment in the indicated experimental groups was monitored by CCK-8 assay (n = 3 per group). The data are expressed as means ± SEMs. * p < 0.05, ** p < 0.01, *** p < 0.001, and **** p < 0.0001, ANOVA test followed by Tukey’s post hoc analysis.
CD1 mice were purchased from Orient Co. for use in the mouse primary neuron culture. E14 embryos from CD1 mice were dissected for primary cortical neurons in Neurobasal A medium (Gibco, Thermo Fisher Scientific Inc., Waltham, MA, USA) supplemented with B-27 (Gibco, Thermo Fisher Scientific Inc., Waltham, MA, USA) and 1 mM L-glutamine. Next, the primary cortical neurons were maintained in a poly L-lysine-coated tissue culture plate, and the medium was changed every 2–3 days. After 7 days, PFF was added to the cortical neurons and incubated for 14 days to observe the p-S129-α-synuclein signal which was used for immunofluorescence analysis. […] The optical value was read at 450 nm using a multi-detection microplate reader (Synergy, BioTek Instruments Inc., Winooski, VT, USA). […]
(A) Representative Western blots showing the degree of recombinant α-synuclein (αSyn) aggregation in a test tube in the presence or absence of t-Khellatone, PCiii, and PCiv (100 μM) at 0 and 5 days of incubation (phosphate-buffered saline [PBS], 37 °C for 5 days). Aggregation of α-synuclein was determined using α- synuclein antibody. (B) Quantification of relative amount of α-synuclein aggregate in high molecular weight sizes in panel A (n = 3 per group). […] (D) Quantification of filament conformation-αSyn (Filament) immunofluorescence signal intensities in MAP2 -positive cortical neurons in each experimental group (n = 15 cells from three separate experiments). […]

[4] = 1 μM every 2 days for 14 days, PFF 1 μg

Row | SMILES | effect on β23-induced cytotoxicity [1] | EC50 [1] | cytotoxicity of the compound at high concentrations [1] | PFF-induced neurotoxicity (neuron viability) [2] | endogenous α-synuclein expression [3] | PFF-induced elevation of filament conformation-αSyn signal [3, 4] | PFF-induced elevation of pS129-αSyn signal [3, 4]
1 | C/C=C(\C)C(=O)O[C@@H]1c2c(ccc3ccc(=O)oc23)OC(C)(C)[C@H]1OC(C)=O (relative stereo) [PCiii, peucedanocoumarin III] | potently prevented | 318 nM | no obvious cytotoxicity | prevented | not affected |  | 
2 | C/C=C(\C)C(=O)O[C@H]1[C@H](OC(C)=O)c2c(ccc3ccc(=O)oc23)OC1(C)C (relative stereo) [PCiv, trans-4′-acetyl-3′-tigloylkhellactone] | nearly equivalent cytoprotective biological function | 204 nM | no obvious cytotoxicity | prevented | not affected | mitigated | mitigated

— PMC9369442, “Synthetic Peucedanocoumarin IV Prevents α-Synuclein Neurotoxicity in an Animal Model of Parkinson’s Disease” (International Journal of Molecular Sciences, 2022)
